Assay results taken from patent US7015215B2, “Pyrrolo[2,1-c][1,4] benzodiazepines compounds and process thereof” (Council of Scientific and Industrial Research, priority 2003, dated 2006).

Legend:
PC-3 = assay: NCI SRB cytotoxicity, Prostate PC-3; type: cell-based, human; details: PC-3, Prostate, 48 h
Description: (§1) For each compound, dose response curves for each cell line were measured at a minimum of five concentrations at 10 fold dilutions. A protocol of 48 h continuous drug exposure was used, and a sulforhodamine B (SRB) protein assay was used to estimate cell viability or growth. The concentration causing 50% cell growth inhibition (GI50), total cell growth inhibition (TGI, 0% growth) and 50% cell death (LC50, −50% growth) compared with the control was calculated.

786-0 = assay: NCI SRB cytotoxicity, Renal 786-0; type: cell-based, human; details: 786-0, Renal, 48 h
Description: (§2) Biological Activity: In vitro biological activity studies were carried out at National Cancer Institute (U.S.A.).
as §1

SK-MEL-28 = assay: NCI SRB cytotoxicity, Melanoma SK-MEL-28; type: cell-based, human; details: SK-MEL-28, Melanoma, 48 h
Description: as §2, §1

HOP-62 = assay: NCI SRB cytotoxicity, Non-small-cell lung HOP-62; type: cell-based, human; details: HOP-62, Non-small-cell lung, 48 h
Description: as §2, §1

TK-10 = assay: NCI SRB cytotoxicity, Renal TK-10; type: cell-based, human; details: TK-10, Renal, 48 h
Description: as §2, §1

CAKI-1 = assay: NCI SRB cytotoxicity, Renal CAKI-1; type: cell-based, human; details: CAKI-1, Renal, 48 h
Description: as §2, §1

NCI-H226 = assay: NCI SRB cytotoxicity, Non-small-cell lung NCI-H226; type: cell-based, human; details: 48 h
Description: as §2, §1

NCI-H322 = assay: NCI SRB cytotoxicity, Non-small-cell lung NCI-H322; type: cell-based, human; details: 48 h
Description: as §2, §1

HCT-116 = assay: NCI SRB cytotoxicity, Colon HCT-116; type: cell-based, human; details: HCT-116, Colon, 48 h
Description: as §2, §1

M14 = assay: NCI SRB cytotoxicity, Melanoma M14; type: cell-based, human; details: 48 h
Description: as §2, §1

SNB-19 = assay: NCI SRB cytotoxicity, CNS SNB-19; type: cell-based, human; details: SNB-19, CNS, 48 h
Description: as §2, §1

UACC-62 = assay: NCI SRB cytotoxicity, Melanoma UACC-62; type: cell-based, human; details: UACC-62, Melanoma, 48 h
Description: as §2, §1

MDA-MB-231/ATCC = assay: NCI SRB cytotoxicity, Breast MDA-MB-231/ATCC; type: cell-based, human; details: 48 h
Description: as §2, §1

OVCAR-4 = assay: NCI SRB cytotoxicity, Ovarian OVCAR-4; type: cell-based, human; details: OVCAR-4, Ovarian, 48 h
Description: as §2, §1

MCF7 = assay: NCI SRB cytotoxicity, Breast MCF7; type: cell-based, human; details: 48 h
Description: as §2, §1

MALME-3M = assay: NCI SRB cytotoxicity, Melanoma MALME-3M; type: cell-based, human; details: 48 h
Description: as §2, §1

HS578T = assay: NCI SRB cytotoxicity, Breast HS578T; type: cell-based, human; details: 48 h
Description: as §2, §1

SK-MEL-2 = assay: NCI SRB cytotoxicity, Melanoma SK-MEL-2; type: cell-based, human; details: SK-MEL-2, Melanoma, 48 h
Description: as §2, §1

NCI-H460 = assay: NCI SRB cytotoxicity, Non-small-cell lung NCI-H460; type: cell-based, human; details: 48 h
Description: as §2, §1

MOLT-4 = assay: NCI SRB cytotoxicity, Leukemia MOLT-4; type: cell-based, human; details: MOLT-4, Leukemia, 48 h
Description: as §2, §1

A549/ATCC = assay: NCI SRB cytotoxicity, Non-small-cell lung A549/ATCC; type: cell-based, human; details: 48 h
Description: as §2, §1

OVCAR-3 = assay: NCI SRB cytotoxicity, Ovarian OVCAR-3; type: cell-based, human; details: OVCAR-3, Ovarian, 48 h
Description: as §2, §1

SNB-75 = assay: NCI SRB cytotoxicity, CNS SNB-75; type: cell-based, human; details: SNB-75, CNS, 48 h
Description: as §2, §1

IGROVI = assay: NCI SRB cytotoxicity, Ovarian IGROVI; type: cell-based, human; details: 48 h
SN12C = assay: NCI SRB cytotoxicity, Renal SN12C; type: cell-based, human; details: 48 h
Description: as §2, §1

HCC-2998 = assay: NCI SRB cytotoxicity, Colon HCC-2998; type: cell-based, human; details: HCC-2998, Colon, 48 h
Description: as §2, §1

MDA-MB-435 = assay: NCI SRB cytotoxicity, Breast MDA-MB-435; type: cell-based, human; details: MDA-MB-435, Breast, 48 h
Description: as §2, §1

SF-268 = assay: NCI SRB cytotoxicity, CNS SF-268; type: cell-based, human; details: SF-268, CNS, 48 h
Description: as §2, §1

HL-60(TB) = details: Leukemia, 48 h, SRB
Description: as §2, §1

HCT-15 = assay: NCI SRB cytotoxicity, Colon HCT-15; type: cell-based, human; details: HCT-15, Colon, 48 h
Description: as §2, §1

UO-31 = assay: NCI SRB cytotoxicity, Renal UO-31; type: cell-based, human; details: UO-31, Renal, 48 h
Description: as §1

U251 = assay: NCI SRB cytotoxicity, CNS U251; type: cell-based, human; details: 48 h
Description: as §2, §1

NCI/ADR-RES = assay: NCI SRB cytotoxicity, Breast NCI/ADR-RES; type: cell-based, human; details: 48 h
Description: as §2, §1

DU-145 = assay: NCI SRB cytotoxicity, Prostate DU-145; type: cell-based, human; details: DU-145, Prostate, 48 h
Description: as §1

ACHN = assay: NCI SRB cytotoxicity, Renal ACHN; type: cell-based, human; details: 48 h
Description: as §2, §1

OVCAR-5 = assay: NCI SRB cytotoxicity, Ovarian OVCAR-5; type: cell-based, human; details: OVCAR-5, Ovarian, 48 h
Description: as §2, §1

EKVX = assay: NCI SRB cytotoxicity, Non-small-cell lung EKVX; type: cell-based, human; details: 48 h
Description: as §2, §1

COc1cc2c(cc1OCCCN1CCN(CCCOc3cc4c(cc3OC)C(=O)N3CCC[C@H]3C=N4)CC1)N=C[C@@H]1CCCN1C2=O [Compound VIb, 1,1′-{[(bispropane-1,N-diyl)piperazine]dioxy}bis[(11aS)-7-methoxy-1,2,3,11a-tetrahydro-5H-pyrrolo[2,1-c][1,4]benzodiazepin-5-one]]
Log GI 50 (PC-3): −5.53 mol/L | Log LC 50 (PC-3): −4.00 mol/L | Log GI 50 (786-0): −5.30 mol/L | Log LC 50 (786-0): −4.00 mol/L | Log GI 50 (SK-MEL-28): −4.48 mol/L | Log LC 50 (SK-MEL-28): −4.00 mol/L | Log GI 50 (HOP-62): −5.14 mol/L | Log LC 50 (HOP-62): −4.00 mol/L | Log GI 50 (TK-10): −5.10 mol/L | Log LC 50 (TK-10): −4.00 mol/L | Log GI 50 (CAKI-1): −4.65 mol/L | Log LC 50 (CAKI-1): −4.00 mol/L | Log GI 50 (NCI-H226): −4.34 mol/L | Log LC 50 (NCI-H226): −4.00 mol/L | Log GI 50 (NCI-H322): −4.57 mol/L | Log LC 50 (NCI-H322): −4.00 mol/L | Log GI 50 (HCT-116): −4.92 mol/L | Log LC 50 (HCT-116): −4.00 mol/L | Log GI 50 (M14): −5.55 mol/L | Log LC 50 (M14): −4.00 mol/L | Log GI 50 (SNB-19): −5.06 mol/L | Log LC 50 (SNB-19): −4.00 mol/L | Log GI 50 (UACC-62): −4.68 mol/L | Log LC 50 (UACC-62): −4.00 mol/L | Log GI 50 (MDA-MB-231/ATCC): −4.52 mol/L | Log LC 50 (MDA-MB-231/ATCC): −4.00 mol/L | Log GI 50 (OVCAR-4): −4.13 mol/L | Log LC 50 (OVCAR-4): −4.00 mol/L | Log GI 50 (MCF7): −6.01 mol/L | Log LC 50 (MCF7): −4.00 mol/L | Log GI 50 (MALME-3M): −5.39 mol/L | Log GI 50 (HS578T): −6.13 mol/L | Log LC 50 (HS578T): −4.00 mol/L | Log GI 50 (SK-MEL-2): −4.82 mol/L | Log LC 50 (SK-MEL-2): −4.00 mol/L | Log GI 50 (NCI-H460): −5.37 mol/L | Log LC 50 (NCI-H460): −4.00 mol/L | Log GI 50 (MOLT-4): −6.50 mol/L | Log LC 50 (MOLT-4): −4.08 mol/L | Log GI 50 (A549/ATCC): −4.37 mol/L | Log LC 50 (A549/ATCC): −4.00 mol/L | Log GI 50 (OVCAR-3): −5.47 mol/L | Log LC 50 (OVCAR-3): −4.00 mol/L | Log GI 50 (SNB-75): −4.61 mol/L | Log LC 50 (SNB-75): −4.00 mol/L | Log GI 50 (IGROVI): −5.26 mol/L | Log LC 50 (IGROVI): −4.00 mol/L | Log GI 50 (SN12C): −4.44 mol/L | Log LC 50 (SN12C): −4.00 mol/L | Log GI 50 (HCC-2998): −4.73 mol/L | Log LC 50 (HCC-2998): −4.04 mol/L | Log GI 50 (MDA-MB-435): −5.37 mol/L | Log LC 50 (MDA-MB-435): −4.09 mol/L | Log GI 50 (SF-268): −5.52 mol/L | Log GI 50 (HL-60(TB)): −6.66 mol/L | Log LC 50 (HL-60(TB)): −4.00 mol/L | Log GI 50 (HCT-15): −4.25 mol/L | Log LC 50 (HCT-15): −4.00 mol/L | Log GI 50 (UO-31): −4.27 mol/L | Log LC 50 (UO-31): −4.00 mol/L | Log GI 50 (U251): −5.41 mol/L | Log LC 50 (U251): −4.00 mol/L | Log GI 50 (NCI/ADR-RES): −4.00 mol/L | Log LC 50 (NCI/ADR-RES): −4.00 mol/L | Log GI 50 (DU-145): −5.62 mol/L | Log LC 50 (DU-145): −4.00 mol/L | Log GI 50 (ACHN): −4.47 mol/L | Log LC 50 (ACHN): −4.00 mol/L | Log GI 50 (OVCAR-5): −5.06 mol/L | Log LC 50 (OVCAR-5): −4.00 mol/L | Log GI 50 (EKVX): −4.47 mol/L | Log LC 50 (EKVX): −4.00 mol/L
